According to patent US12473250B2, “Molecular design of new antibiotics and antibiotic adjuvants against MCR strains” (priority 2019, dated 2025):
Converted amounts (≈) assume the structure as drawn.

Legend:
[1] = tested on: colistin resistant mcr-1 (+) strains 6083655967, 6075066346 and mcr-1 (−) strain 7023446108; test: Time kill study; format: cell-based, E. coli; conditions: in 2 hours
Method: Time kill assay is used to determine the rate at which concentrations an antimicrobial agent kill a bacterial isolate. The bacterial suspension was adjusted to 10^6 to 10^7 CFU/mL with different concentrations of LC compounds and the antibiotics for comparison in separate tubes that incubated at 35° C. For synergy time kill: Two different antimicrobial agents which are antibiotic/LC compounds were added in an equal amount make a final volume to 1 mL (e.g: 500 μL of Antibiotic: 500 μL of LC compound) and subsequently 1 mL of prepared bacteria suspension were added into the same tube. Aliquots of 100 μL samples will be withdrawn at different time intervals (0, 1, 2, 4, 8, 24 hours) and were plated on Mueller Hinton Agar (MHA) upon set of serial dilutions. Subsequently, after 24 and 48 hours, all the plates were checked for bacteria growth and the colonies were calculated for colony-forming unit (CFU/mL) numeration and the time kill curve plotted with logarithm of the viable count against time. The results from various concentrations of antibiotics and control were plotted.
To understand the action of the combinations of LC100 with colistin, time kill experiments using the inventive combination in three colistin resistant strains, including two mcr-1(+) and one mcr-1(−) strains, were carried out.

[2] = tested on: MCR positive E. coli Clinical isolate 6083655967; format: in vivo; conditions: for reduction in bacterial burden: neutropenic mice, i.p. 1 hour after infection, 6 hours after treatment, colistin 10 mg/kg, LC100 50 mg/kg, meropenem 100 mg/kg, combination 50 + 10 mg/kg
Method: FIG. 21 refers to graphs showing the efficacy testing of combination of LC100 and Colistin in neutropenic mouse thigh infection model infected with MCR positive E. coli Clinical isolate 6083655967. Starting inoculum was 1.87×10^6, N=3. “Combination” refers to Colistin 10 mg/kg+LC100 50 mg/kg. Each treatment was done intraperitoneally 1 hour after infection. 6 hours after treatment, mouse thigh tissues were homogenized for viable CFU.
The combination of colistin and antimicrobial peptide (LC100) was tested against E. coli clinical isolate MCR-positive strain 6083655967 in a neutropenic mouse thigh infection model. C57BL/6 mice were rendered neutropenic by cyclophosphamide, dosed at 150 and 100 mg kg-1 delivered on days −4 and −1 prior to infection. Bacteria were suspended in sterile saline and adjusted to a concentration of ˜1.876×10^6 CFU per infection site (100 micro-liters) and injected intramuscularly into the right thigh of five mice per treatment group. At 1 h post infection, mice received colistin ([…], i.p. n=5), LC100 (50 mg kg-1, i.p. n=5), untreated (n=5), or the combination (n=5). Mice were euthanized 6 h after infection; thigh tissue was aseptically collected, homogenized, serially diluted in PBS and plated onto solid TSA supplemented plates. Plates were incubated overnight at 37° C. and colonies were quantified to determine bacterial load.
To evaluate the in vivo efficacy of the combination of LC100 and colistin, a neutropenic mouse thigh infection model was used. 30 mice were classed into 5 groups: control, colistin at 10 mg/kg, LC100 at 50 mg/kg, meropenem at 100 mg/kg and combination of 50 mg/kg of LC100 and 10 mg/kg of colistin. Each treatment was administered intraperitoneally 1 hour after infection. The starting inoculum was 1.87×10^6, and 6 hours after treatment, mouse thigh tissues were homogenized for viable CFU. […] As neutropenic mice were used in the study, the 1.2 log reduction in bacterial burden is due to the combination of LC100 and colistin rather than the immune system of the mouse.

[3] = tested on: colistin resistant MCR (+) E. Coli strains; test: MIC, broth microdilution, compound alone; format: cell-based
Method in brief: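 Wells held ~5×10^5 CFU/mL of bacteria prepared to 0.5 McFarland from overnight TSA colonies and exposed to serially diluted agents, following modified CLSI microdilution. After 24 h at 35 °C, growth judged by turbidity (OD600 possible); 99% inhibition sets the MIC.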

[4] = tested on: KLPN multi-drug resistant strains; test: MIC against multi-drug resistant strains (Table 5); format: cell-based, Klebsiella pneumonia; conditions: alone
Method: (§1) MIC experiments of the antimicrobial agents were determined by a modified broth microdilution method in accordance with the Clinical and Laboratory Standards Institute (CLSI) guidelines using 96 well culture plates. In brief, serial dilutions of all plates were prepared at different concentrations (μg). The inoculum suspension was prepared by adding isolated colonies from a 18-20 hours on TSA plate into phosphate buffer (0.31 mM, pH 7.2) or in water for injection (BBraun) and adjusting the suspension to a turbidity equivalent to 0.5 McFarland Standard. Each well contained a final bacterial concentration of approximately 5×10^5 colony forming units (CFU)/mL. The plate was covered and incubated at 35° C. for 24 hours. […] For the microdilution plates, turbidity in wells can be measured at OD600 using TECAN infinite M200Pro. MIC was determined as […] concentration that gives a 99 percent inhibition.

[5] = tested on: ACBA multi-drug resistant strains; test: MIC against multi-drug resistant strains (Table 5); format: cell-based, Acinetobacter baumannii; conditions: alone
Method: as §1

[6] = strain 6075066346, MCR (+), compound alone
[7] = strain 6083655967, MCR (+), compound alone
[8] = strain 6103645107, MCR (+), compound alone
[9] = strain 6123520276, MCR (+), compound alone
[10] = strain 7013177695, MCR (+), compound alone
[11] = strain 7023436560, MCR (+), compound alone

**Q.** With `CCN(CC)CCCCOc1ccc(/C=C/C(=O)c2ccc(OCCCCN(CC)CC)c(CC=C(C)C)c2O)cc1` [LC100] as the compound, how does the “log reduction in time kill” value ([1]; ⅛ MIC of colistin in the presence of 10 μg/ml of LC100) read?
**A.** 3 log

**Q.** And the “observations in treated mice” value ([2]; LC100 50 mg/kg or Colistin 10 mg/kg+LC100 50 mg/kg, intraperitoneally)?
**A.** Abdominal distension

**Q.** And the “reduction in bacterial burden” value [2]?
**A.** cannot reduce the bacterial burden

**Q.** What about the “antimicrobial activity when used alone” value ([3]; colistin resistant bacteria, in words) of the same compound?
**A.** no activity

**Q.** What about the MIC [3, 6] of the same compound?
**A.** 100 µg/mL (≈ 173 µM)

**Q.** And the MIC [3, 7]?
**A.** 100 µg/mL (≈ 173 µM)

**Q.** What about the MIC [3, 8] of the same compound?
**A.** 100 µg/mL (≈ 173 µM)

**Q.** What about the MIC [3, 9] of the same compound?
**A.** 100 µg/mL (≈ 173 µM)

**Q.** And the MIC [3, 10]?
**A.** 100 µg/mL (≈ 173 µM)

**Q.** What about the MIC [3, 11] of the same compound?
**A.** 100 µg/mL (≈ 173 µM)

**Q.** What about the MIC ([3]; strain 7028444207 (Table 1b), MCR (+), compound alone) of the same compound?
**A.** 100 µg/mL (≈ 173 µM)

**Q.** What about the MIC ([4]; strain KLPN 8852) of the same compound?
**A.** >50 µg/mL

**Q.** And the MIC ([4]; strain KLPN 15588)?
**A.** >50 µg/mL

**Q.** What about the MIC ([4]; strain KLPN 24076) of the same compound?
**A.** >50 µg/mL

**Q.** And the MIC ([4]; strain KLPN 27025)?
**A.** >50 µg/mL

**Q.** What about the MIC ([5]; strain ACBA 1010) of the same compound?
**A.** 25 µg/mL (≈ 43.2 µM)

**Q.** And the MIC ([5]; strain ACBA 1012)?
**A.** 50 µg/mL (≈ 86.4 µM)

**Q.** And the MIC ([5]; strain ACBA 43357)?
**A.** 50 µg/mL (≈ 86.4 µM)

**Q.** What about the MIC ([5]; strain ACBA ATCC 19606) of the same compound?
**A.** >50 µg/mL

**Q.** Which results are given for Colistin?
**A.** log reduction in time kill ([1]; colistin at concentrations equal or above the MIC): 3 log; reduction in bacterial burden [2]: cannot reduce the bacterial burden; colistin MIC ([3]; colistin alone): more than 6 μg/ml; MIC ([3]; panel of colistin resistant strains): 6.25 µg/mL; MIC [3, 6]: 6.25 µg/mL; MIC [3, 7]: 6.25 µg/mL; MIC [3, 8]: 6.25 µg/mL; MIC [3, 9]: 6.25 µg/mL; MIC [3, 10]: 6.25 µg/mL; MIC [3, 11]: 6.25 µg/mL; MIC ([3]; strain 7023444207, MCR (+), compound alone): 6.25 µg/mL; MIC ([4]; strain KLPN 8852): >50 µg/mL; MIC ([4]; strain KLPN 15588): 1.56 µg/mL; MIC ([4]; strain KLPN 24076): 1.56 µg/mL; MIC ([4]; strain KLPN 27025): 1.56 µg/mL; MIC ([5]; strain ACBA 1010): 0.78 µg/mL; MIC ([5]; strain ACBA 1012): 0.78 µg/mL; MIC ([5]; strain ACBA 43357): 3.125 µg/mL; MIC ([5]; strain ACBA ATCC 19606): 1.56 µg/mL
